Source: PubChem BioAssay (NCI)
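Five concentrations, 48 hours, 96-well plates. GI50 is the concentration that inhibits growth by half. The concentration for full growth arrest is given as TGI.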

Key:
Assay in all cases: NCI tumour cell line growth inhibition, 48 h
HCC-2998 colon = tested on: HCC-2998 colon
HCT-15 colon = tested on: HCT-15 colon
HOP-92 NSCLC = tested on: HOP-92 NSCLC
NCI-H226 lung = tested on: NCI-H226 lung
NCI-H460 lung = tested on: NCI-H460 lung
OVCAR-3 ovarian = tested on: OVCAR-3 ovarian
SK-MEL-28 melanoma = tested on: SK-MEL-28 melanoma
SK-OV-3 ovarian = tested on: SK-OV-3 ovarian
SW-620 colon = tested on: SW-620 colon
DMS 273 small cell lung = tested on: DMS 273 small cell lung

SMILES | GI50 (HCC-2998 colon) | TGI (HCC-2998 colon) | GI50 (HCT-15 colon) | TGI (HCT-15 colon) | GI50 (HOP-92 NSCLC) | TGI (HOP-92 NSCLC) | GI50 (NCI-H226 lung) | TGI (NCI-H226 lung) | GI50 (NCI-H460 lung) | TGI (NCI-H460 lung) | GI50 (OVCAR-3 ovarian) | TGI (OVCAR-3 ovarian) | GI50 (SK-MEL-28 melanoma) | TGI (SK-MEL-28 melanoma) | GI50 (SK-OV-3 ovarian) | TGI (SK-OV-3 ovarian) | GI50 (SW-620 colon) | TGI (SW-620 colon) | TGI (DMS 273 small cell lung)
COc1ccc(/C(C#N)=C/c2ccccc2OC)cc1 | 14.5 µM | > 100 µM | 6.25 µM | > 100 µM | 4.57 µM | 70.8 µM | 17.7 µM | > 100 µM | 5.89 µM | > 100 µM | 7.22 µM | > 100 µM | 17.5 µM | > 100 µM | 19.4 µM | > 100 µM | 3.78 µM | > 100 µM | –
CC(C)[C@H]1CO[C@]2(C)[C@@H]3CN(Cc4ccccc4)C[C@@H]3C(=O)N12 | – | – | – | > 100 µM | – | > 100 µM | – | > 100 µM | – | > 100 µM | – | > 100 µM | – | > 100 µM | – | > 100 µM | – | > 100 µM | > 100 µM
Nc1nc2c(c3ncncc13)C(c1cccc(C(F)(F)F)c1)Cc1ncncc1-2 (stereo not drawn) | 11.2 µM | 48.7 µM | 3.57 µM | > 100 µM | 6.92 µM | 57.9 µM | 9.61 µM | 50.1 µM | 3.96 µM | > 100 µM | 3.03 µM | 11.4 µM | 11.4 µM | 26.9 µM | 5.07 µM | > 100 µM | 4.51 µM | > 100 µM | –
COc1ccc2nc(-c3cccs3)cc(C(O)CN3CCSCC3)c2c1 (stereo not drawn) | – | 58.9 µM | – | 57.8 µM | – | 62.1 µM | – | – | – | 45.1 µM | – | > 100 µM | – | 77.4 µM | – | > 100 µM | – | 93.7 µM | 40 µM
CN1CCC(n2cnc(-c3ccc(F)cc3)c2-c2ccnc(NCCO)n2)CC1 | > 25 µM | > 25 µM | 20.7 µM | > 25 µM | 5.43 µM | > 25 µM | > 25 µM | > 25 µM | 9.54 µM | > 25 µM | > 23.4 µM | > 25 µM | > 25 µM | > 25 µM | > 25 µM | > 25 µM | 15.8 µM | > 25 µM | –
COc1ccc(-c2nc3sc4c(c3c(=O)[nH]2)CCCCCC4)cc1 | > 33.2 µM | > 33.2 µM | 0.655 µM | > 33.2 µM | 1.4 µM | 14.5 µM | 8.17 µM | > 33.2 µM | 2.26 µM | > 33.2 µM | 1.91 µM | > 33.2 µM | 6.67 µM | > 33.2 µM | 1.6 µM | > 33.2 µM | 1.81 µM | > 33.2 µM | –
COC(=O)[C@@]1(C)CC[C@]2(C)CC[C@]3(C)C4=CC=C5C(=CC(=O)C(O)=C5C)[C@]4(C)[C@@H](O)C[C@@]3(C)[C@@H]2C1 | 13 µM | 25.2 µM | 5.07 µM | 17.7 µM | 11.6 µM | 23.2 µM | 13.9 µM | 24.9 µM | 13.4 µM | 25.5 µM | 8.63 µM | 18.5 µM | 9.43 µM | 19.7 µM | 19.1 µM | 42.2 µM | 9.27 µM | 20.2 µM | –
Nc1ccccc1C#C/C=C\C#Cc1cccs1 | 4.17 µM | 19.3 µM | 9.45 µM | 43.7 µM | 6.4 µM | 36.6 µM | 2.22 µM | 16.9 µM | 13.7 µM | 42.5 µM | 4.85 µM | 24.8 µM | 24.6 µM | > 67.5 µM | 26.5 µM | > 52.3 µM | 14.4 µM | 33 µM | –
CC(C)c1cc(-c2n[nH]c(=O)n2-c2ccc3c(ccn3C)c2)c(O)cc1O | 0.0256 µM | 2.77 µM | < 0.02 µM | > 47.7 µM | < 0.0169 µM | 0.0484 µM | 0.286 µM | 60.1 µM | < 0.0157 µM | 13.9 µM | < 0.0237 µM | 19.4 µM | < 0.0215 µM | 17.2 µM | < 0.0132 µM | > 43.5 µM | < 0.013 µM | 24.5 µM | –
COc1cc(C2CC(c3ccc4c(c3)OCO4)=NN2C=O)cc(OC)c1OC (stereo not drawn) | 4.44 µM | > 100 µM | 1.58 µM | > 100 µM | – | > 100 µM | 8.06 µM | > 100 µM | 1.37 µM | > 100 µM | 0.965 µM | 3.25 µM | 6.36 µM | > 100 µM | 2.25 µM | > 100 µM | 1.21 µM | > 100 µM | –
OC(c1cc(-c2ccccc2)nc2ccc(Cl)cc12)C1CCCCN1 (stereo not drawn) | 1.83 µM | 3.34 µM | 1.84 µM | 3.53 µM | 2.02 µM | 6.87 µM | 2.19 µM | 4.64 µM | 1.89 µM | 3.61 µM | 2.15 µM | 5.15 µM | 1.77 µM | 3.36 µM | 3.85 µM | 14.4 µM | 1.94 µM | 3.69 µM | –
CCOC(=O)c1c2c(n3ccccc13)C(=O)c1ccccc1C2=O | – | 7.59 µM | – | > 100 µM | – | > 100 µM | – | > 100 µM | – | 15.6 µM | – | > 100 µM | – | > 100 µM | – | > 100 µM | – | > 100 µM | –
CC1=C(C)C(=O)c2c(cc3ccccn23)C1=O | – | 29.9 µM | – | 29.9 µM | – | – | – | 58.5 µM | – | 31.5 µM | – | 29.2 µM | – | 34 µM | – | 63.6 µM | – | 35.5 µM | 32.2 µM
CC1=Nc2ccccc2S/C1=C(/C)NNC(=O)C(N)=O | – | > 100 µM | – | > 100 µM | – | > 100 µM | – | – | – | > 100 µM | – | > 100 µM | – | > 100 µM | – | > 100 µM | – | > 100 µM | > 100 µM
COC(=O)[C@H](C[C@H](Cc1ccccc1)NC(=O)c1csc([C@@H](C[C@H](C(C)C)N(C)C(=O)[C@@H](NC(=O)[C@H]2CCCCN2C)C(C)C)OC(C)=O)n1)NC(=O)OCc1ccccc1 | < 0.0009 µM | > 5.64 µM | 0.00401 µM | > 9 µM | 0.00163 µM | > 9 µM | 0.00144 µM | 0.0799 µM | < 0.0009 µM | > 9 µM | < 0.0009 µM | – | 0.0025 µM | 2.5 µM | 0.00199 µM | > 9 µM | < 0.0009 µM | > 9 µM | –
